Data published in patent publication US20220002806A1, “BIOMARKER” (ERBER AKTIENGESELLSCHAFT, priority 2018, published 2022).

Tests used:
miRNAs in uterus tissue = test: Small RNA sequencing (RNA-Seq) of miRNAs in uterus tissue of ZEN-exposed piglets; assay type: in vivo, pig (Sus scrofa); settings: for fold change of ssc-miRNA-542-3p in uterus compared to the control group: highest fold change of the group
Description: Weaned female piglets (sow: Landrace×Large White, boar: Pietrain; 30+/−2 days old) were obtained from a local producer and individually tagged. Piglets were housed in slatted floor pens under controlled environmental conditions. After an acclimatization period of seven days, twenty-four female piglets were selected based on both body weight and vulva size, and allocated to one of four groups (6 animals/group). Piglets received either blank feed (negative control; Ctrl) or feed contaminated with ZEN in three increasing concentrations (ZEN low: 0.17 mg/kg diet; ZEN medium: 1.5 mg/kg diet; ZEN high: 4.6 mg/kg diet). During the 28-day experimental period, each treatment group was given free access to water and the assigned diet. The pigs were observed daily and weighed weekly.
After 28 days of dietary exposure to the experimental diets, pigs were anesthetized by intramuscular injection of ketamine (0.1 mL/kg body weight (b.w.) Narketan®, Vétoquinol GmbH, Ravensburg, Germany) and azaperone (0.03 mL/kg b.w.; Stresnil®, Janssen-Cilag, Neuss, Germany). Subsequently, animals were euthanized by intracardial injection of T61® (Intervet, UnterschleiBheim, Germany; 0.1 ml/kg b.w.). The whole reproductive tract was collected, weighed and examined for any clinical signs. Small pieces of the corpus uteri and the mid-jejunum were dissected, placed into 1 mL of RNAlater, and stored overnight at 4° C. The next day, all the tissue samples were transferred to −80° C. for long-term storage, and until processed for transcriptomics analysis.
miRNA Extraction and Library Preparation: A total of 18 animals was used for investigations on the miRNA profile in the tissues: 6 from Ctrl, 4 from ZEN low, 4 from ZEN medium, and 4 from ZEN high. About 30 mg of tissue from uterus or jejunum was disrupted via a bead-beating step, and the total RNA, including RNA from approximately 18 nucleotides upwards, was extracted and purified with the miRNeasy Mini Kit (Qiagen, Hilden, Germany), following the manufacturer's instructions. The concentration of RNA was first estimated on the Nanodrop (Termo Scientifc NanoDrop 2000, USA), and again with the Agilent 2100 Bioanalyzer (Agilent Technologies, Germany) during the measurement of the RIN for determining the RNA quality. In total 1 μg of total RNA was used for construction of small RNA sequencing libraries using the NEBNext Multiplex SmallRNA Library preparation set for Illumina (New England Biolabs). Adapter-ligated total RNA was reverse transcribed into cDNA, which was used as template for PCR amplification (15 cycles) using Illumina's SR Primer and Index Primers 1-18. Barcoded DNA libraries were purified using the QIAQuick PCR purification protocol (Qiagen, Hilden, Germany) and quantified using the DNA 1000 high sensitivity chip (Agilent Technologies, Germany). Purified samples were pooled at equimolar (50 nM) concentration. Size selection was performed using gel purification to select for insert sizes between 18 and 50 nucleotides. The final multiplexed (n=18) libraries were sequenced on a NextSeq 500 sequencing instrument according to the manufacturer instructions. Raw data was de-multiplexed and FASTQ files for each sample was generated using the bcl2fastq software (Illumina inc.). FASTQ data was checked using the FastQC online tool (http://www.bioinformatics.babraham.ac.uk/projects/fastqc/).
RNA sequencing (RNA-Seq) Bioinformatics Analysis: Total reads were adapter trimmed using Cutadapt and quality filtered (Q-Score >30) using the FastQC tool. Trimmed and quality filtered reads were aligned to reference miRNA sequences in miRBase release 21 (www.mirbase.org; Kozomora and Griffiths-Jones. 2014. Nucleid Acids Research, 42, D68-D73) using bowtie2. Subsequently, reads were mapped against the Sus scrofa genome assembly Sscrofa10.2 as well as Ensembl small non-coding RNA reference databases. Reads were normalized to the total read count per library to generate tags per million (TPM) values. […]

estrogen receptors β = estrogen receptors β (Homo sapiens, UniProt Q92731); settings: Zinedine et al. 2007; cited from earlier work
Chain of estrogen receptors β (Q92731 whole entry): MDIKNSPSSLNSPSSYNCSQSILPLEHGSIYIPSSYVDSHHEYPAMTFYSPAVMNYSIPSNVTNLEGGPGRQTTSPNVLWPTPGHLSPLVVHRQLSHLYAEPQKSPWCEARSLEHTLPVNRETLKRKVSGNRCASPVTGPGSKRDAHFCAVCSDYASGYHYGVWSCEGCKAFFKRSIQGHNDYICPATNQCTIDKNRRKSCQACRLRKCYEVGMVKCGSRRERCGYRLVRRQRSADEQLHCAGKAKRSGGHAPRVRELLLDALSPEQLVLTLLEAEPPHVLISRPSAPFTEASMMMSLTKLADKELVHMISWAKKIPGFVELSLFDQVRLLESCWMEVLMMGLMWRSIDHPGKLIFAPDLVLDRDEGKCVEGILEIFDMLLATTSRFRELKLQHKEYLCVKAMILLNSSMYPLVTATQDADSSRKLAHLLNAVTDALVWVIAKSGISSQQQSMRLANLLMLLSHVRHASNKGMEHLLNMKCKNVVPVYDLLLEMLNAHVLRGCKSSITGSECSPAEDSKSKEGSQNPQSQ

[1] = Ctrl vs ZEN high (4.6 mg/kg diet), 28 days in feed
[2] = Ctrl vs ZEN low (0.17 mg/kg diet), 28 days in feed
[3] = ZEN high group (4.6 mg/kg diet) vs Ctrl, 28 days in feed
[4] = both ZEN medium (1.5 mg/kg diet) and ZEN high (4.6 mg/kg diet) group vs Ctrl, 28 days in feed

## C[C@H]1CCCC(=O)CCC/C=C/c2cc(O)cc(O)c2C(=O)O1 [ZEN, (2E,11S)-15,17-dihydroxy-11-methyl-12-oxabicyclo[12.4.0]octadeca-1(18),2,14,16-tetraene-7,13-dione]
miRNAs in uterus tissue; [1]
  log2 fold change of hsa-miR-135b-5p in uterus: log2 fold change Ctrl vs ZEN high ≤ −1.5,
  log2 fold change of hsa-miR-301a-5p in uterus: log2 fold change Ctrl vs ZEN high ≤ −1.5,
  log2 fold change of put-miR-300 in uterus: ZEN high ≤ −1.5, TPM > 10
  log2 fold change of ssc-miR-22-3p in uterus: Ctrl vs ZEN high ≥ 1.5; TPM > 10
  log2 fold change of ssc-miR-129a in uterus: log2 fold change Ctrl vs ZEN high < −1.5,
  log2 fold change of ssc-miR-135 in uterus: ZEN high ≤ −1.5, TPM > 10
  log2 fold change of ssc-miR-143-5p in uterus: ZEN high ≥ −1.5, TPM > 10
  log2 fold change of ssc-miR-187 in uterus: Crtrl vs ZEN high ≤ −1.5
  log2 fold change of ssc-miR-204 in uterus: log2 fold change Ctrl vs ZEN high ≤ −1.5,
  log2 fold change of ssc-miR-432-5p in uterus: change Ctrl vs ZEN high ≥ 1.5, specificity
  log2 fold change of ssc-miR-493-3p in uterus: log2 fold change Ctrl vs ZEN high ≥ 1.5,
  log2 fold change of ssc-miR-542-3p in uterus: ZEN high ≥ 1.5, TPM > 10
  log2 fold change of ssc-miR-758 in uterus: change Ctrl vs ZEN high ≥ 1.5
miRNAs in uterus tissue; [2]
  log2 fold change of hsa-miR-135b-5p in uterus: log2 fold change Ctrl vs ZEN low ≤ −0.3,
  log2 fold change of hsa-miR-301a-5p in uterus: log2 fold change Ctrl vs ZEN low ≤ −0.3,
  log2 fold change of ssc-miR-22-3p in uterus: change Ctrl vs ZEN low ≥ 0.3, log2 fold
  log2 fold change of ssc-miR-133a-5p in uterus: change Ctrl vs ZEN low ≥ 0.3, TPM > 10
  log2 fold change of ssc-miR-195 in uterus: change Ctrl vs ZEN low ≥ 0.3, TPM > 10
  log2 fold change of ssc-miR-486 in uterus: change Ctrl vs ZEN low ≥ 0.3, TPM > 10
  log2 fold change of ssc-miR-493-5p in uterus: change Ctrl vs ZEN low ≥ 0.3, TPM > 10,
  log2 fold change of ssc-miR-497 in uterus: change Ctrl vs ZEN low ≥ 0.3, TPM > 10
  log2 fold change of ssc-miR-708-3p in uterus: low ≤ −0.3, TPM > 10
miRNAs in uterus tissue; Ctrl vs ZEN medium (1.5 mg/kg diet), 28 days in feed
  log2 fold change of ssc-miR-187 in uterus: vs ZEN medium ≤ −0.3, log2 fold change
miRNAs in uterus tissue; ZEN high (4.6 mg/kg diet)
  fold change of ssc-miRNA-542-3p in uterus compared to the control group: +12.6
miRNAs in uterus tissue; ZEN high (4.6 mg/kg diet), lowest fold change of the group
  fold change of ssc-miRNA-204 in uterus compared to the control group: −4.1
miRNAs in uterus tissue; [3]
  Response to ZEN treatment in uterus: hsa-miR-135b-5p: Significantly decreased in ZEN high
  Response to ZEN treatment in uterus: hsa-miR-301a-5p: Significantly decreased in ZEN high
  Response to ZEN treatment in uterus: ssc-miR-22-3p: Significantly increased in ZEN high group,
  Response to ZEN treatment in uterus: ssc-miR-22-5p: Significantly increased in ZEN high group,
  Response to ZEN treatment in uterus: ssc-miR-34a: Significantly increased in ZEN high group
  Response to ZEN treatment in uterus: ssc-miR-125a: Significantly decreased in ZEN high
  Response to ZEN treatment in uterus: ssc-miR-125b: Significantly decreased in ZEN high
  Response to ZEN treatment in uterus: ssc-miR-127: Significantly increased in ZEN high group
  Response to ZEN treatment in uterus: ssc-miR-129a: Significantly decreased in ZEN high
  Response to ZEN treatment in uterus: ssc-miR-133a-5p: Significantly increased in ZEN high group,
  Response to ZEN treatment in uterus: ssc-miR-135: Significantly decreased in ZEN high
  Response to ZEN treatment in uterus: ssc-miR-136: Significantly increased in ZEN high group,
  Response to ZEN treatment in uterus: ssc-miR-140-3p: Significantly increased in ZEN high group,
  Response to ZEN treatment in uterus: ssc-miR-142-3p: Significantly increased in ZEN high group,
  Response to ZEN treatment in uterus: ssc-miR-146b: Significantly decreased in ZEN high
  Response to ZEN treatment in uterus: ssc-miR-182: Significantly increased in ZEN high group
  Response to ZEN treatment in uterus: ssc-miR-183: Significantly increased in ZEN high group,
  Response to ZEN treatment in uterus: ssc-miR-195: Significantly increased in ZEN high group,
  Response to ZEN treatment in uterus: ssc-miR-204: Significantly decreased in ZEN high
  Response to ZEN treatment in uterus: ssc-miR-369: Significantly increased in ZEN high group
  Response to ZEN treatment in uterus: ssc-miR-378: Significantly increased in ZEN high group
  Response to ZEN treatment in uterus: ssc-miR-432-5p: Significantly increased in ZEN high group,
  Response to ZEN treatment in uterus: ssc-miR-455-3p: Significantly increased in ZEN high group,
  Response to ZEN treatment in uterus: ssc-miR-455-5p: Significantly increased in ZEN high group,
  Response to ZEN treatment in uterus: ssc-miR-486: Significantly increased in ZEN high group,
  Response to ZEN treatment in uterus: ssc-miR-493-3p: Significantly increased in ZEN high group,
  Response to ZEN treatment in uterus: ssc-miR-493-5p: Significantly increased in ZEN high group,
  Response to ZEN treatment in uterus: ssc-miR-708-3p: Significantly decreased in ZEN high
  Response to ZEN treatment in uterus: ssc-miR-758: Significantly increased in ZEN high group,
miRNAs in uterus tissue; ZEN medium (1.5 mg/kg diet) and high (4.6 mg/kg diet) group vs Ctrl, 28 days in feed
  Response to ZEN treatment in uterus: put-miR-300: Significantly decreased in ZEN medium
miRNAs in uterus tissue; ZEN medium (1.5 mg/kg diet)
  fold change of ssc-miRNA-542-3p in uterus compared to the control group: +3.9
miRNAs in uterus tissue; ZEN medium (1.5 mg/kg diet), lowest fold change of the group
  fold change of ssc-miRNA-187 in uterus compared to the control group: −3.4
miRNAs in uterus tissue; [4]
  Response to ZEN treatment in uterus: ssc-miR-1: Significantly increased in both ZEN
  Response to ZEN treatment in uterus: ssc-miR-143-5p: Significantly increased in both ZEN
  Response to ZEN treatment in uterus: ssc-miR-181c: Significantly decreased in both ZEN
  Response to ZEN treatment in uterus: ssc-miR-187: Significantly decreased in both ZEN
  Response to ZEN treatment in uterus: ssc-miR-206: Significantly increased in both ZEN
  Response to ZEN treatment in uterus: ssc-miR-335: Significantly decreased in both ZEN
  Response to ZEN treatment in uterus: ssc-miR-424-5p: Significantly increased in both ZEN
  Response to ZEN treatment in uterus: ssc-miR-450a: Significantly increased in both ZEN
  Response to ZEN treatment in uterus: ssc-miR-450b-5p: Significantly increased in both ZEN
  Response to ZEN treatment in uterus: ssc-miR-450c-5p: Significantly increased in both ZEN
  Response to ZEN treatment in uterus: ssc-miR-497: Significantly increased in both ZEN
  Response to ZEN treatment in uterus: ssc-miR-503: Significantly increased in both ZEN
  Response to ZEN treatment in uterus: ssc-miR-542-3p: Significantly increased in both ZEN
  Response to ZEN treatment in uterus: ssc-miR-7135-3p: Significantly increased in both ZEN
Estrogen receptors β
  agonist action on estrogen receptor β: partial agonist
